Measured values from publication PMC8100298, “Histone deacetylase inhibitor resminostat in combination with sorafenib counteracts platelet-mediated pro-tumoral effects in hepatocellular carcinoma” (Scientific Reports, 2021).
pEC50: −log10 of the molar value. Read-outs that look alike come from different tables or passages of the source.

How the values were obtained:
Type in all cases: cell-based
HCC cells = experiment: Western blots for acetylated α-Tubulin and p21; conditions: 1 µM or 3 µM, 24 hours (Fig. S1C)
Description: C. Western blots for acetylated α-Tubulin, total α-Tubulin, p21 and GAPDH (loading control).
Cells were treated with vehicle control (0.1 % DMSO), 1 µM or 3 µM resminostat for 24 hours. Grouped blots were composed from cropped parts of individual blots for each antibody. Original blots with exposures and indicated cropped areas can be found in the supplementary information.
D. Cell line screen determining the EC50s of resminostat in 74 cell lines representing 14 different ca ncer indications. In addition, peripheral blood mononuclear cells (PBMCs) from healthy donors were tested. Each dot represents an EC50.
(100×, 78440; Thermo Scientific, Massachusetts, US). Following incubation for 1 h at 4°C, […]
The protein concentration of the
Fisher Scientific, Massachusetts, US ). Equal amounts of protein lysates and a pre-stained […]
US) and transferred to PVDF membranes. The membranes were probed using the relevant […]
of the blots to X-ray films. […]
to adjust brightness and contrast across entire images. No other image manipulations were […]
intracellular FACS staining.

22RV1 = experiment: Efficacy screening assay; conditions: 22RV1, prostate; for pEC50: read-out: EC50
Description: (§1) The experiment was performed by Oncolead GmbH & Co. KG (Karlsfeld , Germany), based on a standardized screening procedure . Cell lines were purchased directly from the ATCC, NCI and DSMZ cell line c ollections. Cells used for the study had undergone less than 20 passages. To ensure the absence of potential contamination and wrong assignment, all cell lines were tested using a whole genome assay (Agilent, USA). All cell lines were grown as recommended by the suppliers and with addition of 100 U/mL penicillin G and 100 µg/mL; streptomycin. Cell growth and treatments were performed in Nunclon D 96 -well plates (NUNC, Germany). The optimal seeding density for each cell line was determined to ensure exponential growth for the duration of the experiment. All cells growing without anti-cancer agents were sub-conﬂuent by the end of the treatment, as determined by visual inspection.
(§2) After an initial 24 h pre-growth period, the compounds were added. The vehicle concentration […]
(§3) was 0.1% DMSO. After incubation at 37°C for 72 h, the culture medium was aspirated, and the cells were precipitated by the addition of 10% trichloroacetic acid (Sigma-Aldrich, Missouri, US). After overnight incubation at 4°C, the plates were washed three times with deionized water. The precipitates were then stained with SRB (0.4% wt/v sulforhodamine B solution in 1% acetic acid, Sigma-Aldrich, Missouri, US). Afterwards, the plates were washed six times with 1% acetic acid to remove unbound stain. After drying the plates at room temperature, the bound SRB was solubilized with 10 mM Tris base and the optical density was measured at 520 nm using a Victor2 plate reader (Perkin Elmer, Germany). Blank OD values were subtracted from mean OD values for each concentration. The nonlinear curve ﬁtting and EC50 calculations were per formed using XLﬁt and algorithm “205” (ID Business […]
(§4) one-way ANOVA and multiple comparison (Dunnett) was performed for compound treatments compared to vehicle control. The adjusted p-values with 95% confidence interval were reported as significant. For comparison of EC50 values in Figure 1F, one-way ANOVA with multiple comparison testing (Tukey) was performed. Multiplicity adjusted p -values for the EC50 with sorafenib versus resminostat for each cell line and comparison between cell lines for sorafenib are presented (95% confidence interval for significance testing). For comparison of EC50 data in Figure 2B, one-way ANOVA with multiple comparison testing (Tukey) was performed. Multiplicity adjusted p-values with 95% confidence interval was applied. For the invasion assays in Figure 4, one-way ANOVA with multiple comparison testing (Tukey) was performed. Multiplicity adjusted p-values with 95% confidence interval was applied. The adjusted p-values comparing vehicle control without vs. with platelets and compound

A2780 = experiment: Efficacy screening assay; conditions: A2780, ovary; for pEC50: read-out: EC50
Description: as §1, §2, §3, §4

ASPC1 = experiment: Efficacy screening assay; conditions: Homo sapiens, ASPC1, pancreas, 72 h
Description: as §1, §2, §3, §4

BT20 = experiment: Efficacy screening assay; conditions: BT20, breast; for pEC50: read-out: EC50
Description: as §1, §2, §3, §4

## CN(C)Cc1ccc(S(=O)(=O)n2ccc(/C=C/C(=O)NO)c2)cc1 [resminostat, Resminostat]
HCC cells
  acetylation of α-Tubulin: hyperacetylation
  p21 protein: accumulation
22RV1; 72 h
  pEC50: 5.84
22RV1; Homo sapiens, 22Rv1, 72 h, log of EC50, negative, read-out: log(EC50) (converted)
  EC50: 1.45 µM
22RV1; Homo sapiens, 22Rv1, 72 h
  pEC50: 5.84
A2780; 72 h
  pEC50: 6.05
A2780; Homo sapiens, A2780, 72 h, log of EC50, negative, read-out: log(EC50) (converted)
  EC50: 0.891 µM
A2780; Homo sapiens, A2780, 72 h
  pEC50: 6.05
ASPC1; log of EC50, negative, read-out: log(EC50) (converted)
  EC50: 1.66 µM
ASPC1; read-out: EC50
  pEC50: 5.78
BT20; 72 h
  pEC50: 5.88
BT20; Homo sapiens, BT-20, 72 h, log of EC50, negative, read-out: log(EC50) (converted)
  EC50: 1.32 µM
BT20; Homo sapiens, BT-20, 72 h
  pEC50: 5.88
